In doi:10.1101/2024.08.19.608619, “Discovery of potent SARS-CoV-2 nsp3 macrodomain inhibitors uncovers lack of translation to cellular antiviral response” (bioRxiv, 2024):
Read-outs that look alike come from different tables or passages of the source.

Columns and labels:
[1] = target: T1, SARS-CoV-2 nsp3-mac1 (Severe acute respiratory syndrome coronavirus 2, UniProt P0DTD1); assay: biochemical; design: SARS-CoV-2 nsp3 macrodomain TR-FRET single point, per cent inhibition, n=2
[2] = target: T1, SARS-CoV-2 nsp3-mac1; assay: biochemical; format: biochemical; conditions: SARS-CoV-2 nsp3 macrodomain TR-FRET single point
[3] = read-out: perc_inhibition_mean, batch_name=ASAP-0000341-001
[4] = read-out: perc_inhibition_mean, batch_name=ASAP-0000203-002
[5] = read-out: perc_inhibition_mean, batch_name=ASAP-0000360-001
[6] = read-out: perc_inhibition_mean, batch_name=ASAP-0000394-001
[7] = read-out: perc_inhibition_mean, batch_name=ASAP-0000332-001
[8] = read-out: perc_inhibition_mean, batch_name=ASAP-0000350-001
[9] = read-out: perc_inhibition_mean, batch_name=ASAP-0000413-001
[10] = read-out: perc_inhibition_mean, batch_name=ASAP-0000283-001
[11] = read-out: perc_inhibition_mean, batch_name=ASAP-0000262-001
[12] = read-out: perc_inhibition_mean, batch_name=ASAP-0000292-001
[13] = read-out: perc_inhibition_mean, batch_name=ASAP-0000396-001
[14] = read-out: perc_inhibition_mean, batch_name=ASAP-0000276-001
[15] = read-out: perc_inhibition_mean, batch_name=ASAP-0000476-001

Compound `c1ccc2c(-c3c[nH]c4ncccc34)n[nH]c2c1` [ASAP-0000092] has an inhibition at 50 µM ([1]; read-out: perc_inhibition_mean, batch_name=ASAP-0000092-001) of -7.25% and a perc_inhibition_mean ([2]; concentration 50.0 uM) of -7.254%.
Work on `O=C(NCc1cn[nH]c1)c1cnn2ccc(C3CCN(C(=O)c4ccccc4)CC3)cc12` [ASAP-0000341] yielded an inhibition at 49.75 µM [1, 3] of -2.37%, an inhibition at 99.5 µM [1, 3] of -4.5% and a perc_inhibition_mean ([2]; concentration 49.75 uM, n=2) of -2.366%. The perc_inhibition_mean ([2]; concentration 99.5 uM, n=2) was -4.505%.
For `Cn1nc(NCc2cc3c(=O)[nH]ccc3o2)c2nccnc21` [ASAP-0000095], the inhibition at 50 µM ([1]; read-out: perc_inhibition_mean, batch_name=ASAP-0000095-001) was -1.01% and the perc_inhibition_mean ([2]; concentration 50.0 uM) was -1.007%.
For `Cc1ccc(-c2n[nH]cc2CNc2cnc3[nH]ncc3c2)o1` [ASAP-0000203], the inhibition at 50 µM ([1]; read-out: perc_inhibition_mean, batch_name=ASAP-0000203-001) was 7.23%, the inhibition at 50 µM [1, 4] was -21.6% and the inhibition at 100 µM [1, 4] was -24.8%. For the same compound, the perc_inhibition_mean ([2]; concentration 50.0 uM) was 7.232%, the perc_inhibition_mean ([2]; concentration 50.0 uM, n=2) was -21.592% and the perc_inhibition_mean ([2]; concentration 100.0 uM, n=2) was -24.84%.
For `O=C(O)c1ccsc1C(=O)N1CCC(c2ccn3ncc(C(=O)N4CCCCC4)c3c2)CC1` [ASAP-0000360], the inhibition at 49.75 µM [1, 5] was 45%, the inhibition at 99.5 µM [1, 5] was 61.2% and the perc_inhibition_mean ([2]; concentration 49.75 uM) was 45.022%. It also gave a perc_inhibition_mean ([2]; concentration 99.5 uM) of 61.208%.
`O=C(CCN(Cc1cccc(Cl)c1)C(=O)[C@H]1CCOC1)N1CCNCC1` [ASAP-0000394] showed an inhibition at 49.75 µM [1, 6] of 4.08%, an inhibition at 99.5 µM [1, 6] of -3.96% and a perc_inhibition_mean ([2]; concentration 49.75 uM) of 4.078%. It also gave a perc_inhibition_mean ([2]; concentration 99.5 uM) of -3.965%.
For `Cc1cocc1C(=O)N(CCC(=O)N1CCNCC1)Cc1cccc(Cl)c1` [ASAP-0000332], the inhibition at 49.75 µM [1, 7] was 1.4%, the inhibition at 99.5 µM [1, 7] was 0.51% and the perc_inhibition_mean ([2]; concentration 49.75 uM, n=2) was 1.398%. It also gave a perc_inhibition_mean ([2]; concentration 99.5 uM, n=2) of 0.51%.
In the case of `O=C(N[C@H]1CCC[C@H]1C(=O)O)c1cnn2ccc(C3CCN(C(=O)c4ccccc4)CC3)cc12` [ASAP-0000350], the inhibition at 49.75 µM [1, 8] was 59.6%, the inhibition at 99.5 µM [1, 8] was 73.5% and the perc_inhibition_mean ([2]; concentration 49.75 uM, n=2) was 59.585%. The perc_inhibition_mean ([2]; concentration 99.5 uM, n=2) was 73.53%.
With `O=C1CC[C@@H](CNC(=O)c2cnn3ccc(C4CCN(C(=O)c5ccccc5)CC4)cc23)N1` [ASAP-0000413] the inhibition at 49.75 µM [1, 9] was -2.32%, the inhibition at 99.5 µM [1, 9] was -1.47% and the perc_inhibition_mean ([2]; concentration 49.75 uM) was -2.317%. The perc_inhibition_mean ([2]; concentration 99.5 uM) was -1.468%.
Work on `CC(C)n1ncnc1CNc1cc2c(=O)nc[nH]c2cn1` [ASAP-0000121] yielded an inhibition at 50 µM ([1]; read-out: perc_inhibition_mean, batch_name=ASAP-0000121-001) of -1.49% and a perc_inhibition_mean ([2]; concentration 50.0 uM) of -1.486%.
Compound `Cc1n[nH]nc1C(=O)N1CCC(c2ccn3ncc(C(=O)N4CCCCC4)c3c2)CC1` [ASAP-0000283] has an inhibition at 49.75 µM [1, 10] of 29.3%, an inhibition at 99.5 µM [1, 10] of 45.8% and a perc_inhibition_mean ([2]; concentration 49.75 uM, n=2) of 29.33%. The perc_inhibition_mean ([2]; concentration 99.5 uM, n=2) was 45.786%.
With `O=S(=O)(NC[C@H]1CCOC1)c1cn2c(n1)CCCC2` [ASAP-0000100] the inhibition at 50 µM ([1]; read-out: perc_inhibition_mean, batch_name=ASAP-0000100-001) was -3.2% and the perc_inhibition_mean ([2]; concentration 50.0 uM) was -3.203%.
`c1cc(CNc2ncnc3nc[nH]c23)n2ncnc2c1` [ASAP-0000262] was tested, and the inhibition at 50 µM [1, 11] was 1.35%, the inhibition at 100 µM [1, 11] was 10% and the perc_inhibition_mean ([2]; concentration 50.0 uM, n=2) was 1.353%. For the same compound, the perc_inhibition_mean ([2]; concentration 100.0 uM, n=2) was 10.036%.
Compound `CN(C(=O)c1ccc(NC(=O)Nc2ccccc2)cc1)[C@@H]1CN2CCC1CC2` [ASAP-0000292] has an inhibition at 49.75 µM [1, 12] of -4.01%, an inhibition at 99.5 µM [1, 12] of 2.77% and a perc_inhibition_mean ([2]; concentration 49.75 uM, n=2) of -4.01%. For the same compound, the perc_inhibition_mean ([2]; concentration 99.5 uM, n=2) was 2.773%.
With `O=C(c1ccccc1)N1CCC(c2ccn3ncc(C(=O)N4CCCC[C@H](O)C4)c3c2)CC1` [ASAP-0000396] the inhibition at 49.75 µM [1, 13] was 17.8%, the inhibition at 99.5 µM [1, 13] was 29.8% and the perc_inhibition_mean ([2]; concentration 49.75 uM) was 17.833%. It also gave a perc_inhibition_mean ([2]; concentration 99.5 uM) of 29.785%.
`COC(=O)[C@]1(F)CCN(C(=O)c2ccc(NC(=O)Nc3ccccc3)cc2)C1` [ASAP-0000276] showed an inhibition at 49.75 µM [1, 14] of -0.893%, an inhibition at 99.5 µM [1, 14] of 0.834% and a perc_inhibition_mean ([2]; concentration 49.75 uM, n=2) of -0.893%. For the same compound, the perc_inhibition_mean ([2]; concentration 99.5 uM, n=2) was 0.834%.
`Cc1c([C@@H](C)Nc2ncnc3[nH]ccc23)cnn1-c1ccccc1` [ASAP-0000476] was tested, and the inhibition at 49.75 µM [1, 15] was 28.1%, the inhibition at 99.5 µM [1, 15] was 41.7% and the perc_inhibition_mean ([2]; concentration 49.75 uM) was 28.129%. It also gave a perc_inhibition_mean ([2]; concentration 99.5 uM) of 41.664%.
